Reference: ChEMBL document CHEMBL2057208, “Benzoylbenzimidazole-based selective inhibitors targeting Cryptosporidium parvum and Toxoplasma gondii calcium-dependent protein kinase-1” (Bioorg Med Chem Lett, 2012)
Calls of active or inactive are those of the source. The calls are words filed in the database; no cut-off is given here.

Experiments:
[1] = Inhibition of Cryptosporidium parvum CDPK1
[2] = target: T1, Calmodulin-domain protein kinase 1 (Toxoplasma gondii, UniProt Q9BJF5); test: Inhibition of Toxoplasma gondii CDPK1
T1 sequence (Q9BJF5 whole entry): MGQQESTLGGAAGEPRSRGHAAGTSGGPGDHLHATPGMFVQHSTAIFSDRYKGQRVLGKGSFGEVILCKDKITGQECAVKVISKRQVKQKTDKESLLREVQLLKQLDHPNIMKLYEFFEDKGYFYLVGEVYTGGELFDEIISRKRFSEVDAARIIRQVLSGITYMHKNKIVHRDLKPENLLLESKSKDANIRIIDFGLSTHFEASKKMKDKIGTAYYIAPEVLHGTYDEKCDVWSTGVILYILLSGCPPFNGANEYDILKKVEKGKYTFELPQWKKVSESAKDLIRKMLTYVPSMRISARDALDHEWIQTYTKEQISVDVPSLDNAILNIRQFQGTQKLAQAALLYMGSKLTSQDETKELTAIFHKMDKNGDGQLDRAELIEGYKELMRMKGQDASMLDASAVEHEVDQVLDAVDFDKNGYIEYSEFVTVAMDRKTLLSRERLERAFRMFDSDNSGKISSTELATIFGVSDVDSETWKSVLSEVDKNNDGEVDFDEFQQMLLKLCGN

cells = conditions: Homo sapiens, CRL8155
Description: Cytotoxicity against human CRL8155 cells after 48 to 72 hrs by Alamar blue assay

Cryptosporidium parvum = test: Antiparasitic activity against Cryptosporidium parvum up to 1 uM; assay type: functional, organism-based
[3] = target: Proto-oncogene tyrosine-protein kinase Src (Homo sapiens, UniProt P12931); test: Inhibition of human SRC
HL-60 = test: cells; conditions: Homo sapiens
Description: Cytotoxicity against human HL60 cells after 48 to 72 hrs by Alamar blue assay

Toxoplasma gondii = test: Antiparasitic activity against Toxoplasma gondii up to 1 uM; assay type: functional, organism-based

Chain of Proto-oncogene tyrosine-protein kinase Src (P12931 2-536 limits assumed): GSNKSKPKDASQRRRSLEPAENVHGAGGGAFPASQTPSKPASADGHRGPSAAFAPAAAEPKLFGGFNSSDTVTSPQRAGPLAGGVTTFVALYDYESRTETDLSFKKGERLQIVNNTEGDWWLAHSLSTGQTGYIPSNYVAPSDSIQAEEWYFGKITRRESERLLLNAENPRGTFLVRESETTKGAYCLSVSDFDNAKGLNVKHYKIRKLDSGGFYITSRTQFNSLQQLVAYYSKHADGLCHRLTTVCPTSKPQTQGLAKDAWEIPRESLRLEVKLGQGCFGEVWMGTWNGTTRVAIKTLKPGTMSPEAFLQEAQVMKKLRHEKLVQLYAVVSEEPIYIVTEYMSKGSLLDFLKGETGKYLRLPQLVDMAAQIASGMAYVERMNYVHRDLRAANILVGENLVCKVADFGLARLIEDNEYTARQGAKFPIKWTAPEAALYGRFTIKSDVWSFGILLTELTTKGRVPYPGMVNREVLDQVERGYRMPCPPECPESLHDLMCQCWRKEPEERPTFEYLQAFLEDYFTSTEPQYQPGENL

| SMILES | IC50 [1] [µM] | IC50 [2] [µM] | EC50 (cells) [µM] | Activity (Cryptosporidium parvum) | IC50 [3] [µM] | EC50 (HL-60) [µM] | Activity (Toxoplasma gondii) |
| --- | --- | --- | --- | --- | --- | --- | --- |
| NCCC(=O)Nc1nc2ccc(C(=O)c3ccccc3)cc2n1CC1CCNCC1 | 0.86 | 0.57 | > 30 | inactive | > 10 | > 30 | inactive |
| N[C@@H](Cc1c[nH]cn1)C(=O)Nc1nc2ccc(C(=O)c3ccccc3)cc2[nH]1 | 0.32 | 0.14 | > 30 | inactive | – | > 30 | inactive |
| NCCCC(=O)Nc1nc2ccc(C(=O)c3ccccc3)cc2[nH]1 | 0.091 | 0.069 | > 30 | inactive | – | > 30 | inactive |
| Nc1nc2ccc(C(=O)c3ccccc3)cc2n1CCN1CCCCC1 | 0.3 | 0.16 | > 30 | inactive | – | > 30 | inactive |
| Nc1nc2ccc(C(=O)c3ccccc3)cc2n1CCc1ccccn1 | 0.83 | 0.26 | > 30 | inactive | – | > 30 | inactive |
| COC(=O)Nc1nc2ccc(C(O)c3ccccc3)cc2[nH]1 (stereo not drawn) | > 3 | > 3 | – | – | – | – | – |
| O=C(NCCCCO)Nc1nc2ccc(C(=O)c3ccccc3)cc2[nH]1 | 0.59 | 0.38 | > 30 | inactive | – | > 30 | inactive |
| NCCCCCCC(=O)Nc1nc2ccc(C(=O)c3ccccc3)cc2[nH]1 | 0.072 | 0.022 | > 30 | inactive | – | > 30 | inactive |
| CN1CCC(Cn2c(N)nc3ccc(C(=O)c4ccccc4)cc32)CC1 | 0.26 | 0.15 | > 30 | inactive | – | > 30 | inactive |
| O=C(CCCC1CCNCC1)Nc1nc2ccc(C(=O)c3ccccc3)cc2[nH]1 | 0.082 | 0.018 | > 30 | inactive | – | > 30 | inactive |
| Nc1nc2ccc(C(=O)c3ccccc3)cc2n1C[C@H]1CCCN1 | 0.87 | 1 | > 30 | inactive | – | > 30 | inactive |
| Nc1nc2ccc(C(=O)c3ccccc3)cc2n1CCN1CCOCC1 | 0.39 | 0.22 | > 30 | inactive | – | > 30 | inactive |
| CN1CCC[C@@H]1Cn1c(N)nc2ccc(C(=O)c3ccccc3)cc21 | 0.79 | 0.66 | > 30 | inactive | – | > 30 | inactive |
| CN1CCC[C@H]1CCn1c(N)nc2ccc(C(=O)c3ccccc3)cc21 | 0.071 | 0.068 | > 30 | inactive | – | > 30 | inactive |
| CC(C)(C)Cn1c(N)nc2ccc(C(=O)c3ccccc3)cc21 | 0.13 | 0.063 | > 30 | inactive | – | > 30 | inactive |
| O=C(CC1CCNCC1)Nc1nc2ccc(C(=O)c3ccccc3)cc2[nH]1 | 0.12 | 0.06 | > 30 | inactive | – | > 30 | inactive |
| CC(C)Cn1c(N)nc2ccc(C(=O)c3ccccc3)cc21 | 0.23 | 0.067 | > 30 | inactive | – | > 30 | inactive |

| SMILES | IC50 [1] [µM] | IC50 [2] [µM] | EC50 (cells) [µM] | Activity (Cryptosporidium parvum) | IC50 [3] [µM] | EC50 (HL-60) [µM] | Activity (Toxoplasma gondii) |
| --- | --- | --- | --- | --- | --- | --- | --- |
| O=C(c1ccccc1)c1ccc2nc(NC(=O)[C@@H]3CCCN3)[nH]c2c1 | 0.13 | 0.16 | > 30 | inactive | – | > 30 | inactive |
| O=C(c1ccccc1)c1ccc2nc(NCCC3CCCNC3)[nH]c2c1 (stereo not drawn) | > 3 | > 3 | > 30 | inactive | – | > 30 | inactive |
| O=C(NCCO)Nc1nc2ccc(C(=O)c3ccccc3)cc2[nH]1 | – | 0.13 | – | – | – | – | – |
| COC(=O)Nc1nc2cc(C(=O)c3ccccc3)ccc2[nH]1 [MEBENDAZOLE] | 0.92 | – | > 30 | inactive | – | > 30 | inactive |
| CN1CCN(CCCn2c(N)nc3ccc(C(=O)c4ccccc4)cc32)CC1 | 0.17 | 0.18 | > 30 | inactive | – | > 30 | inactive |
| Nc1nc2ccc(C(=O)c3ccccc3)cc2n1CC[C@H]1CCCN1 | 0.095 | 0.065 | > 30 | inactive | – | > 30 | inactive |
| NCCCCNC(=O)Nc1nc2ccc(C(=O)c3ccccc3)cc2[nH]1 | 0.15 | 0.14 | > 30 | inactive | – | > 30 | inactive |
| Nc1nc2ccc(C(=O)c3ccccc3)cc2n1C[C@@H]1CCCN1 | 0.26 | 0.41 | > 30 | inactive | – | > 30 | inactive |
| O=C(NCCO)Nc1nc2cc(C(=O)c3ccccc3)ccc2[nH]1 | 0.18 | – | > 30 | inactive | – | > 30 | inactive |
| Nc1nc2ccc(C(=O)c3ccccc3)cc2n1C[C@H]1CCNC1 | 0.12 | 0.12 | > 30 | inactive | – | > 30 | inactive |
| O=C(NCCC1CCCNC1)Nc1nc2ccc(C(=O)c3ccccc3)cc2[nH]1 (stereo not drawn) | 0.16 | 0.12 | > 30 | inactive | – | > 30 | inactive |
| N[C@@H](Cc1ccc(O)cc1)C(=O)Nc1nc2ccc(C(=O)c3ccccc3)cc2[nH]1 | 1.41 | 0.52 | > 30 | inactive | – | > 30 | inactive |
| O=C(CCC1CCNCC1)Nc1nc2ccc(C(=O)c3ccccc3)cc2[nH]1 | 0.11 | 0.041 | > 30 | inactive | – | > 30 | inactive |
| Nc1nc2ccc(C(=O)c3ccccc3)cc2n1CCc1ccc(F)cc1 | 0.95 | 0.19 | > 30 | inactive | – | > 30 | inactive |
| O=C(c1ccccc1)c1ccc2nc(NCCO)[nH]c2c1 | > 3 | > 3 | > 30 | inactive | – | > 30 | inactive |
| NCCC(=O)Nc1nc2ccc(C(=O)c3ccccc3)cc2[nH]1 | 0.13 | 0.18 | > 30 | inactive | – | > 30 | inactive |
